# Columns and labels:
# [1] = test system: patients of solid cancers; assay: Phase I-equivalent test in cancer patients, once every three weeks: 24-hour continuous vs rapid intravenous administration, neurotoxicity occurrence and therapeutic effect (RECIST); assay type: in vivo, human
# Description: A group of cancer patients was repeatedly subjected to a course including a 24-hour continuous intravenous administration once every three weeks at a dose of 2.80 to 8.56 mg/m^2 as reduced to ECyd for each administration. Another group of cancer patients was repeatedly subjected to a course including a rapid intravenous administration once every three weeks at a dose of 2.81 to 9.46 mg/m^2 as reduced to ECyd. In both cases, the neurotoxicity occurrence and the therapeutic effect by ECyd were investigated.
# (§1) The above test is equivalent to the phase I clinical trial, which is performed mainly for evaluating safety of the tested drug and determining the recommended dose (RD) of the drug, which ensures safety of the drug without adverse effects in the phase II clinical trial carried out with respect to the target cancer. The test is carried out for patients of solid cancers (e.g., gastrointestinal cancers, head and neck cancer, and breast cancer) which cannot be cured by a standard therapeutic method or to which no effective method is applicable. When the test is performed, if possible, the therapeutic effect on the target tumor is assessed. In the following examples, the therapeutic effect on the target tumor was assessed in accordance with the RECIST method (see Journal of the National Cancer Institute, 2000, Vol. 92, No. 3, p. 205 to 216). The effect of ECyd on shrinkage of the tumor was confirmed generally from a target lesion (a lesion having a size equal to or greater than the measurable size depending on the slice width obtained through CT or similar means) and the non-target lesions (all lesions other than the target lesion). […] PD (progressive disease) refers to a state in which the sum of the longer diameters of target lesions was increased by 20% or more as compared with the minimum sum of the longer diameters recorded after start of the test, or a state in which clear exacerbation in the non-target lesions or a new lesion was observed. SD (stable disease) refers to a state in which the degree of tumor shrinkage cannot be evaluated as PR and which cannot be evaluated as PD, and in which the tumor progress has stopped and no exacerbation was observed. MR (minor response) refers to a case in which a certain tumor shrinkage degree of about 15% was maintained (although it was less than 30%), or in which a therapeutic effect corresponding to PR is temporarily observed.
# [2] = test system: patients of solid cancers; assay: Test in cancer patients, 4-hour continuous vs rapid intravenous administration, neurotoxicity occurrence and therapeutic effect; assay type: in vivo, human
# Description: as §1
# A course including a 4-hour continuous intravenous administration once every three weeks out of a continuous four-week period at a dose of 1.30 mg/m^2 as reduced to ECyd for each administration was repeatedly performed. Also, a course including a rapid intravenous administration once every three weeks out of a continuous four-week period at a dose of 1.32 mg/m^2 as reduced to ECyd was repeatedly performed. In both cases, the neurotoxicity occurrence and the therapeutic effect by ECyd were investigated. In Example 2, selection of the patients and the method and ratings of evaluation were the same as employed in Example 1.
# [3] = test system: human lung tumor cells (A549 strain); assay: Effect of ECyd contact schedule on growth inhibition of A549 cells (Crystal Violet staining, constant AUC); assay type: cell-based
# Description: The effects of the ECyd contact schedule on growth inhibition of human lung tumor cells (A549 strain) were investigated.
# (§2) The experiment of Example 4 was performed at a constant AUC (product of contact time and ECyd concentration). Specifically, in each tested regimen, AUC was maintained at such a level that the ECyd concentration was adjusted to provide IC80 (0.08 μM) as a result of contact between ECyd and the A549 cells for 100 hours. In each tested regimen, A549 cells were seeded on a plate and treated with ECyd. Subsequently, the cell culture liquid was exchanged. The profile of cell growth thereafter was obtained through staining with Crystal Violet.
# cancer patients = settings: rapid intravenous injection, once every three weeks or once a week for three weeks and one week rest; cited from earlier work
# [4] = test system: neural-crest-derived rat adrenal medulla chromaffin cells (PC12 strain); assay: Effect of ECyd contact schedule on growth inhibition of PC12 cells (Crystal Violet staining, constant AUC); assay type: cell-based; settings: for growth of PC12 cells after ECyd contact: constant AUC
# Description: The effects of the ECyd contact schedule on growth inhibition of neural-crest-derived rat adrenal medulla chromaffin cells (PC12 strain) were investigated.
# as §2, with “3” for “4”, “PC12” for “A549”
# [5] = rapid intravenous administration once every three weeks, 6.31 mg/m^2
structure (smiles),measurement,setting,value
"C#C[C@@]1(O)[C@@H](CO)O[C@@H](n2ccc(N)nc2=O)[C@@H]1O [ECyd, 1-(3-C-Ethynyl-β-D-ribopentofuranosyl)cytosine]",peripheral neurotoxicity,"[1]; 24-hour continuous intravenous administration once every three weeks, 2.80 mg/m^2 to 5.48 mg/m^2",no peripheral neurotoxicity was observed
same,therapeutic effect,"[1]; rapid intravenous administration once every three weeks, 2.81 mg/m^2",no therapeutic effect was observed
same,cases exhibiting peripheral neurotoxicity,"[1]; rapid intravenous administration once every three weeks, 2.81 mg/m^2, two of the three cases",66%
same,cases exhibiting peripheral neurotoxicity,[1]; [5],two of the three cases
same,therapeutic efficacy (SD or higher),[1]; [5],two of the three cases
same,therapeutic efficacy (SD or higher),"[2]; 4-hour continuous intravenous administration, 1.30 mg/m^2",66%
same,cases exhibiting peripheral neurotoxicity,"[2]; 4-hour continuous intravenous administration, 1.30 mg/m^2, one of the three cases",33%
same,therapeutic efficacy (SD or higher),"[2]; rapid intravenous administration, 1.32 mg/m^2",no therapeutic efficacy (SD or higher) was observed
same,cases exhibiting peripheral neurotoxicity,"[2]; rapid intravenous administration, 1.32 mg/m^2, one of the three cases",33%
same,IC80,"[3]; Homo sapiens, A549 cells, contact for 100 hours",80 nM
same,growth of A549 cells after ECyd contact,"[3]; contact times of 0.5 to 100 hours, constant AUC, day 6",virtually unrestored
same,dose-limiting toxicity,cancer patients,peripheral neurotoxicity was observed as a dose-limiting toxicity
same,IC80,"[4]; Rattus norvegicus, PC-12, PC12 cells, contact for 100 hours",80 nM
same,growth of PC12 cells after ECyd contact,"[4]; contact time of 0.5 hours, day 6",virtually unrestored
same,growth of PC12 cells after ECyd contact,[4]; contact times of 25 and 100 hours,restored
